The values that follow come from patent US11312723B2, “Pyranopyrazole and pyrazolopyridine immunomodulators for treatment of autoimmune diseases” (The Rockefeller University, priority 2017, dated 2022).

The structures appear in SMILES notation.

In the assay the target is Human FXIIa (Homo sapiens (Human), UniProt P00748). Briefly: Factor XIIa (FXIIa) inhibitory activity, chromogenic substrate (Pefachrome XIIa) cleavage. The settings on record: 10 min pre-incubation, Pefachrome XIIa 400 μM. Format: biochemical. How it is done: Factor XIIa (FXIIa) Inhibitory Activity:
In a 96-well clear bottom plate, 80 μl of assay buffer was added to each well. Assay buffer consists of 0.5× Hank's Balanced Salt Solution (Invitrogen), buffered with 25 mM HEPES pH 7.4 (Invitrogen) and 0.5× Tris-buffered saline with Tween-20 0.05% (Santa Cruz Biotechnology). Test compounds were first dissolved in DMSO (Sigma) and then 4 μl were added to test wells containing assay buffer. Serial dilutions using an automated multi-channel pipette were used to generate a concentration range of approximately 1-100 μM. Human FXIIa (Enzyme Research Labs) was diluted in assay buffer to a final concentration of 12.5 nM. 80 μl of this enzyme solution was added to the assay wells. The enzyme/compound mixtures were incubated for 10 minutes at room temperature. Chromogenic substrate (Pefachrome XIIa; Enzyme Research Labs) was added to assay wells at a final concentration of 400 μM. The assay plate was spun for 1 minute at 1500 g and then read at 37° C. in a SpectraMax M2 plate reader (λ=405 nm). Activity was quantified as the rate of change in absorbance, which corresponds to the rate of substrate cleavage. IC50 values were determined as the concentration of inhibitor that produced 50% of the rate of change of control wells without any inhibitor. For compounds with activity <1 μM, the assay was repeated with a lower concentration range, typically from 10-1000 nM.

Sequence of Human FXIIa (P00748 373-615): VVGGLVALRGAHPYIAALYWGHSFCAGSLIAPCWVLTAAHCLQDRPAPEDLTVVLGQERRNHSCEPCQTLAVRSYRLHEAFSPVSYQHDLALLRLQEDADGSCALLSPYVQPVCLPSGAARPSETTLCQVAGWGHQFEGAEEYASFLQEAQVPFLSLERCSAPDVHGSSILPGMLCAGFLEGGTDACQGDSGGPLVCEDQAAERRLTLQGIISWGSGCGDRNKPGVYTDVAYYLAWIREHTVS
Sequence of Human FXIIa (P00748 20-372 partner): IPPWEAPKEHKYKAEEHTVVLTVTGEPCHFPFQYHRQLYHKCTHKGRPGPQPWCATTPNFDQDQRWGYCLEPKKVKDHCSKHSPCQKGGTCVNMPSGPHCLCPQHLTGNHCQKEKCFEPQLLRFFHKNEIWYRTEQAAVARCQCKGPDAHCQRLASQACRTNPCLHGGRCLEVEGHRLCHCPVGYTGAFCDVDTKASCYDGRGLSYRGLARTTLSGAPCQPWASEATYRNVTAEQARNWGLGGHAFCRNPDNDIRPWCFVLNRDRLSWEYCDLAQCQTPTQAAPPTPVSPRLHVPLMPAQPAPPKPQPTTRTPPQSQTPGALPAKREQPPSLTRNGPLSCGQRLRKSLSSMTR

In the case of `CS(=O)(=O)N1CCc2c(nn(C(=O)C3CCNc4ccc(F)cc43)c2N)C1` (single isomer, unassigned) [Example 19, (R*)-(3-amino-6-(methylsulfonyl)-4,5,6,7-tetrahydropyrazolo[3,4-c]pyridin-2-yl)(6-fluoro-1,2,3,4-tetrahydroquinolin-4-yl)methanone], the IC50 is 11 µM.
The compound `CCc1ccc2c(c1)C(C(=O)n1nc3c(c1N)CCN(S(C)(=O)=O)C3)CCN2` (single isomer, unassigned) [Example 32, (S*)-(3-amino-6-(methylsulfonyl)-4,5,6,7-tetrahydropyrazolo[3,4-c]pyridin-2-yl)(6-ethyl-1,2,3,4-tetrahydroquinolin-4-yl)methanone] returned an IC50 of 0.02 µM.
The value for `CCc1ccc2c(c1)C(C(=O)n1nc3c(c1N)CCN(S(C)(=O)=O)C3)CCN2` (single isomer, unassigned) [Example 33, (R*)-(3-amino-6-(methylsulfonyl)-4,5,6,7-tetrahydropyrazolo[3,4-c]pyridin-2-yl)(6-ethyl-1,2,3,4-tetrahydroquinolin-4-yl)methanone] was 10 µM.
Under `Cc1cccc2c1NCCC2C(=O)n1nc2c(c1N)CCN(S(C)(=O)=O)C2` (single isomer, unassigned) [Example 36, (R*)-(3-amino-6-(methylsulfonyl)-4,5,6,7-tetrahydropyrazolo[3,4-c]pyridin-2-yl)(8-methyl-1,2,3,4-tetrahydroquinolin-4-yl)methanone] stands 17 µM; under `Cc1cc(F)cc2c1NCCC2C(=O)n1nc2c(c1N)CCN(S(C)(=O)=O)C2` (single isomer, unassigned) [Example 54, (R*)-(3-amino-6-(methylsulfonyl)-4,5,6,7-tetrahydropyrazolo[3,4-c]pyridin-2-yl)(6-fluoro-8-methyl-1,2,3,4-tetrahydroquinolin-4-yl)methanone], 2.5 µM; under `CS(=O)(=O)N1CCc2c(nn(C(=O)C3CCNc4c(Cl)cccc43)c2N)C1` (single isomer, unassigned) [Example 59, (R*)-(3-amino-6-(methylsulfonyl)-4,5,6,7-tetrahydropyrazolo[3,4-c]pyridin-2-yl)(8-chloro-1,2,3,4-tetrahydroquinolin-4-yl)methanone], 35 µM.
Under `COc1cccc2c1NCCC2C(=O)n1nc2c(c1N)CCN(S(C)(=O)=O)C2` (single isomer, unassigned) [Example 64, (R*)-(3-amino-6-(methylsulfonyl)-4,5,6,7-tetrahydropyrazolo[3,4-c]pyridin-2-yl)(8-methoxy-1,2,3,4-tetrahydroquinolin-4-yl)methanone] stands 35 µM; under `CCc1cc(C)c2c(c1)C(C(=O)n1nc3c(c1N)CCN(S(C)(=O)=O)C3)CCN2` (single isomer, unassigned) [Example 70, (3-amino-6-(methylsulfonyl)-4,5,6,7-tetrahydropyrazolo[3,4-c]pyridin-2-yl)((R*)-6-ethyl-8-methyl-1,2,3,4-tetrahydroquinolin-4-yl)methanone], 5 µM.
For `Nc1c2c(nn1C(=O)C1CCNc3c(Cl)cccc31)CNCC2` (single isomer, unassigned) [Example 72, (S*)-(3-amino-4,5,6,7-tetrahydropyrazolo[3,4-c]pyridin-2-yl)(8-chloro-1,2,3,4-tetrahydroquinolin-4-yl)methanone], the IC50 is 0.07 µM.
In turn, `Nc1c2c(nn1C(=O)C1CCNc3c(Cl)cccc31)CNCC2` (single isomer, unassigned) [Example 73, (R*)-(3-amino-4,5,6,7-tetrahydropyrazolo[3,4-c]pyridin-2-yl)(8-chloro-1,2,3,4-tetrahydroquinolin-4-yl)methanone] registered an IC50 of 7 µM.
Under `Cc1cc(F)cc2c1NCCC2C(=O)n1nc2c(c1N)CCOC2` (single isomer, unassigned) [Example 77, (R*)-(3-amino-4,5-dihydropyrano[3,4-c]pyrazol-2(7H)-yl)(6-fluoro-8-methyl-1,2,3,4-tetrahydroquinolin-4-yl)methanone] stands 70 µM.

In general, IC50 refers to the point on the concentration scale where inhibition reaches its midpoint. Read a low IC50 as inhibition by little substance.
